Test results reported in patent US5457106A, “Pyridine derivatives, their production and use” (Takeda Chemical Industries, Ltd., priority 1991, dated 1995).
pIC50: −log10 of the molar value. Counter-ions that a name gives are not always drawn. One block for each compound: values may come before it.

Assays:
cyclooxygenase = target: T1, cyclooxygenase (Rattus norvegicus, UniProt Q63921); test: Cyclooxygenase inhibitory activity (HHT formation from arachidonic acid in rat platelet-rich plasma); type: cell-based, rat (Jcl:wistar)
T1 construct: from tissue; host or cells: platelets in platelet-rich plasma from rat abdominal aorta blood (Jcl:wistar, male)
T1 sequence (Q63921 27-602): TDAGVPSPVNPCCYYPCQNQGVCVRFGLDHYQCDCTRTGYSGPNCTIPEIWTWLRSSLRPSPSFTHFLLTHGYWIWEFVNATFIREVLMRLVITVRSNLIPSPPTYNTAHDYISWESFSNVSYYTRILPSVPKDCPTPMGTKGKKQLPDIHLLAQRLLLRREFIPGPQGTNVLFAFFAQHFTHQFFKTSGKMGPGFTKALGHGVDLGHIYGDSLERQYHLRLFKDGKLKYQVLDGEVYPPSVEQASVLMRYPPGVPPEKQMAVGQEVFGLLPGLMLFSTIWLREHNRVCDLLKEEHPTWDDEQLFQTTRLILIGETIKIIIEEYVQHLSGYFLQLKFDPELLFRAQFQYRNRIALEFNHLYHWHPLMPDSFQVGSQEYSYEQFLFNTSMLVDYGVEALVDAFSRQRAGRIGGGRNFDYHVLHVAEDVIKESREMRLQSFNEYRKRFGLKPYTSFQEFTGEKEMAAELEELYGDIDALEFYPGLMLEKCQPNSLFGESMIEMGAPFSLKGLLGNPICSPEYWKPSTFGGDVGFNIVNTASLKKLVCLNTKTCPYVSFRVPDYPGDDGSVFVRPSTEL

[1] = tested on: Mouse phenylquinone writhing; test: Mouse phenylquinone writhing inhibitory activity; type: in vivo, mouse (Slc: ICR); settings: 50 mg/kg, orally; for inhibition in vivo at 50 mg/kg: Mus musculus, po, 20 min, read-out: Inhibitory percentage (phenylquinone writhing)
Experimental: Mouse Phenylquinone Writhing Inhibitory Activity A Slc: ICR male mouse (4 weeks, weight 17 to 24 g) was used. A test compound suspended in 5% gum arabic solution was administered orally. After 30 minutes, 0.1 ml/10 g body weight of 0.02% phenylquinone solution in water (dissolved by the aid of 5% ethanol) was injected intraperitoneally, and writhing and stretching responses of individual animals were measured for 20 minutes [Siegmund, E., Cadmus, R. and Lu, G.; Proc. Soc. exp. Biol. Med. 95, (1957)].

[2] = tested on: ART (antigen-responding T-cell); test: In vitro ART (antigen-responding T-cell) proliferation test; type: cell-based, Lewis rat; settings: for inhibition at 1 µM / inhibition at 10 µM: Rattus norvegicus, T-cell, read-out: % Inhibition of ART growth

Structure (SMILES): O=C1CSC(=O)N1CCCCSc1ccncc1 [Example 160, 4-[4-(2,4-thiazolidinedione)butylthio]pyridine]
inhibition at 1 µM ([2]; 1 μM): -14%
inhibition at 10 µM ([2]; 10 μM): 33%

Structure (SMILES): O=C(NCCCSc1cccnc1)c1cccs1 [Example 48, 3-[3-(thenoylamino)propylthio]pyridine]
inhibition in vivo at 50 mg/kg [1]: 31%

Structure (SMILES): O=C(NCCCSc1ccncc1)C1CCCCC1 [Example 23, 4-[3-(cyclohexanoylamino)propylthio]pyridine hydrochloride]
inhibition in vivo at 50 mg/kg [1]: 58%

Structure (SMILES): CC(=O)N(CCCSc1ccncc1)Cc1ccccn1 [Example 79, 4-[3-(N-2-pyridylmethyl-N-acetylamino)propylthio]pyridine]
inhibition in vivo at 50 mg/kg [1]: 48%

Structure (SMILES): O=C(NCCCOc1ccccn1)c1cccs1 [Example 61, 2-[3-(2-thenoylamino)propyloxy]pyridine]
pIC50 (cyclooxygenase): 4.96

Structure (SMILES): O=C(c1ccccc1)N(CCCSc1ccncc1)Cc1cccs1 [Example 92, 4-[3-(N-(2-thienylmethyl)-N-benzoylamino)propylthio]pyridine]
Inhibitory percentage (phenylquinone writhing) [1]: 74%

Structure (SMILES): O=C(c1ccccc1)N(CCOc1ccncc1)Cc1ccccc1 [Example 117, 4-[2-(N-benzyl-N-benzoyl)aminoethyloxy]pyridine]
% Inhibition of ART growth ([2]; 1 μM): 3%
inhibition at 10 µM ([2]; 10 μM): 39%

Structure (SMILES): CC(=O)N(CCCSc1ccncc1)Cc1cccs1.Cl [Example 91, 4-[3-(N-(2-thienylmethyl)-N-acetylamino)-propylthio]pyridine hydrochloride]
Inhibitory percentage (phenylquinone writhing) [1]: 52%
% Inhibition of ART growth ([2]; 1 μM): 44%
% Inhibition of ART growth ([2]; 10 μM): 42%

Structure (SMILES): O=C(c1ccccc1)N(CCSc1ccncc1)Cc1ccccc1 [Example 120, 4-[2-(N-benzyl-N-benzoylamino)ethylthio]pyridine]
inhibition at 1 µM ([2]; 1 μM): 16%
inhibition at 10 µM ([2]; 10 μM): 74%

Structure (SMILES): CC(C)(C)C(=O)Nc1ncccc1SCN1C(=O)c2ccccc2C1=O [Example 74, 3-(phthalimidomethylthio)-2-pivaloylaminopyridine]
inhibition in vivo at 50 mg/kg [1]: 51%
inhibition at 1 µM ([2]; 1 μM): -3%
inhibition at 10 µM ([2]; 10 μM): 52%

Structure (SMILES): O=C(NCCCOc1ccncc1)c1cccnc1 [Example 87, 4-(3-nicotinoylaminopropyloxy)pyridine]
inhibition in vivo at 50 mg/kg [1]: 47%

Structure (SMILES): CC(=O)N(CCCSc1ccncc1)Cc1ccccc1 [Example 75, 4-[3-(N-benzyl-N-acetylamino)propylthio]pyridine]
inhibition in vivo at 50 mg/kg [1]: 54%
inhibition at 1 µM ([2]; 1 μM): 5%
inhibition at 10 µM ([2]; 10 μM): 45%

Structure (SMILES): O=C(NCCCOc1ccncc1)c1cc2ccccc2s1 [Example 115, 4-[3-(thianaphthene-2-carbonyl)aminopropyloxy]pyridine hydrochloride]
inhibition at 1 µM ([2]; 1 μM): 18%
inhibition at 10 µM ([2]; 10 μM): 53%

Structure (SMILES): Cl.Cl.O=C(c1ccccc1)N(CCCSc1ccncc1)Cc1ccccn1 [Example 82, 4-[3-(N-2-pyridylmethyl-N-benzoylamino)propylthio]pyridine dihydrochloride]
Inhibitory percentage (phenylquinone writhing) [1]: 47%

Structure (SMILES): CC(C)(C)C(=O)NCCCOc1ccncc1 [Example 86, 4-(3-pivaloylaminopropyloxy) pyridine]
inhibition in vivo at 50 mg/kg [1]: 51%

Structure (SMILES): O=C1c2ccccc2C(=O)N1COc1ccccn1 [Example 67, 2-(phthalimidomethyloxy)pyridine]
inhibition in vivo at 50 mg/kg [1]: 49%

Structure (SMILES): O=C1SC(=Cc2ccccc2)C(=O)N1CCCCSc1ccccn1 [Example 164, 2-[4-(5-benzylidene-2,4-thiazolidinedione)butylthio]pyridine]
inhibition at 1 µM ([2]; 1 μM): 3%
inhibition at 10 µM ([2]; 10 μM): -54%

Structure (SMILES): CC1(C)NC(=O)N(CCCCSc2ccncc2)C1=O [Example 140, 5,5-dimethyl-3-[4-(4-pyridylthio)butyl]hydantoin]
inhibition at 1 µM ([2]; 1 μM): -9%
inhibition at 10 µM ([2]; 10 μM): -25%

Structure (SMILES): COc1ccc(C=C2SC(=O)N(CCCCSc3ccncc3)C2=O)cc1 [Example 152, 4-[4-[5-(4-methoxybenzylidene)-2,4-thiazolidinedione]butylthio]pyridine]
inhibition at 1 µM ([2]; 1 μM): -20%
inhibition at 10 µM ([2]; 10 μM): 68%

Further lines, with some results ahead:

pIC50 (cyclooxygenase): 5.22
Structure (SMILES): O=C(NCCCSc1ccncc1)c1ccccc1O [Example 36, 4-[3-(salicyloylamino)propylthio]pyridine hydrochloride]

pIC50 (cyclooxygenase): 5.66
Structure (SMILES): CCCCCCCCCC(=O)NCCCCCSc1ccncc1 [Example 9]

pIC50 (cyclooxygenase): 5.46
Structure (SMILES): O=C(NCCCSc1ccncc1)c1ccc(-c2ccccc2)cc1 [Example 26, 4-[3-(4-phenylbenzoylamino)propylthio]pyridine hydrochloride]
inhibition in vivo at 50 mg/kg [1]: 67%

pIC50 (cyclooxygenase): 4.89
Structure (SMILES): O=C1[C@H]2CC=CC[C@H]2C(=O)N1CSc1ccncc1 [Example 96, 4-[cis-(1,2,3,6-tetrahydrophthalimido)methylthio]pyridine]

pIC50 (cyclooxygenase): 4.92
Structure (SMILES): O=C1c2ccccc2S(=O)(=O)N1CCCCSc1ccncc1 [Example 166, 4-(4-saccharinbutylthio)pyridine]

pIC50 (cyclooxygenase): 5.38
Structure (SMILES): Cc1ccsc1C(=O)NCCCSc1ccncc1 [Example 60, 4-[3-(3-methylthenoylamino)propylthio]pyridine]
inhibition in vivo at 50 mg/kg [1]: 41%

pIC50 (cyclooxygenase): 5.05
Structure (SMILES): CN(CCCSc1ccncc1)C(=O)c1cccs1 [Example 51, 4-[3-(N-methyl-2-thenoylamino)propylthio]pyridine]
inhibition in vivo at 50 mg/kg [1]: 72%

pIC50 (cyclooxygenase): 5.51
Structure (SMILES): O=C(NCCCCOc1ccncc1)c1ccccc1CO [Example 148, 4-[4-(2-hydroxymethylbenzoyl)aminobutyloxy]pyridine]

pIC50 (cyclooxygenase): 5.34
Structure (SMILES): O=C(N(CCSc1ccncc1)Cc1ccccc1)C(F)(F)F [Example 119, 4-[2-(N-benzyl-N-trifluoroacetylamino)ethylthio]pyridine]
inhibition at 1 µM ([2]; 1 μM): 13%
inhibition at 10 µM ([2]; 10 μM): 43%

pIC50 (cyclooxygenase): 4.89
Structure (SMILES): CCCCCCCC(=O)NCCCSc1ccncc1 [Example 16]

pIC50 (cyclooxygenase): 5.36
Structure (SMILES): CCCCCCCCCC(=O)NCCSc1ccncc1 [Example 7]

pIC50 (cyclooxygenase): 5.48
Structure (SMILES): O=C(/C=C/c1cnc2ccccc2c1)NCCCSc1ccncc1 [Example 44, 4-[3-(3-quinolineacryloylamino)propylthio]pyridine]

pIC50 (cyclooxygenase): 5.54
Structure (SMILES): CCCCc1ccc(C(=O)NCCCSc2ccncc2)cc1 [Example 34, 4-[3-(4-n-butylbenzoylamino)propylthio]pyridine hydrochloride]
inhibition at 1 µM ([2]; 1 μM): 31%
inhibition at 10 µM ([2]; 10 μM): 47%

pIC50 (cyclooxygenase): 5.18
Structure (SMILES): COc1ccc(C(=O)NCCCSc2ccncc2)cc1 [Example 30, 4-[3-(4-methoxybenzoylamino)propylthio]pyridine]

pIC50 (cyclooxygenase): 5.42
Structure (SMILES): O=C(NCCSc1ccncc1)c1cccs1 [Example 122, 4-(2-thenoylaminoethylthio)pyridine]

pIC50 (cyclooxygenase): 4.92
Structure (SMILES): O=C1c2ccccc2C(O)N1CCCOc1ccncc1 (stereo not drawn) [Example 99, 4-[3-(3-hydroxyisoindolin-1-on-2-yl)propyloxy]pyridine]

pIC50 (cyclooxygenase): 5.36
Structure (SMILES): O=C(CCCc1ccccc1)NCCCSc1ccncc1 [Example 39, 4-[3-(4-phenyl-n-butyrylamino)propylthio]pyridine]

pIC50 (cyclooxygenase): 5.22
Structure (SMILES): O=C1SC(=Cc2ccccc2)C(=O)N1CCCSc1ccncc1 [Example 154, 4-[3-(5-benzylidene-2,4-thiazolidinedione)propylthio]pyridine]
inhibition at 1 µM ([2]; 1 μM): 16%
inhibition at 10 µM ([2]; 10 μM): 27%

pIC50 (cyclooxygenase): 5.18
Structure (SMILES): Cn1cccc1C(=O)NCCCSc1ccncc1 [Example 45, 4-[3-(1-methyl-2-pyrrolecarbonylamino)propylthio]pyridine]

pIC50 (cyclooxygenase): 4.88
Structure (SMILES): CCCC(=O)NCCCSc1ccncc1 [Example 14, 4-[3-(butyrylamino)propylthio]pyridine]

pIC50 (cyclooxygenase): 5.27
Structure (SMILES): O=C(NCCCSc1ccncc1)c1cccc2ccccc12 [Example 27, 4-[3-(1-naphthoylamino)propylthio]pyridine hydrochloride]

pIC50 (cyclooxygenase): 5.37
Structure (SMILES): O=C1c2ccccc2C(O)N1CCCCSc1ccncc1 (stereo not drawn) [Example 107, 4-[4-(3-hydroxyisoindolin-1-on-2-yl)butylthio]pyridine]

pIC50 (cyclooxygenase): 5.15
Structure (SMILES): CCCCCCCCCCCCCC(=O)NCCCSc1ccncc1 [Example 18, 4-[3-(myristoylamino)propylthio] pyridine]

pIC50 (cyclooxygenase): 5.44
Structure (SMILES): O=C(NCCSc1ccncc1)c1ccccc1O [Example 168, 4-[2-(2-hydroxybenzoyl)aminoethylthio]pyridine]

pIC50 (cyclooxygenase): 5.29
Structure (SMILES): CCCCCC(=O)NCCCSc1ccncc1 [Example 15, 4-[3-(hexanoylamino)propylthio]pyridine]

pIC50 (cyclooxygenase): 5.96
Structure (SMILES): CCCCCCCCCC(=O)NCCCCSc1ccncc1 [Example 8]

pIC50 (cyclooxygenase): 5.43
Structure (SMILES): O=C(NCCCCSc1ccncc1)c1ccccc1CO [Example 106, 4-[4-(2-hydroxymethylbenzoyl)aminobutylthio]pyridine]

pIC50 (cyclooxygenase): 5.66
Structure (SMILES): CCCCCCCCCC(=O)NCCCCCCSc1ccncc1 [Example 10]
